Results from patent US9512120B2, “Microbicidally active imidazopyridine derivatives” (Syngenta Participations AG, priority 2013, dated 2016).

Experiments:
[1] = tested on: Mycosphaerella graminicola (Septoria tritici); test: Mycosphaerella graminicola (Septoria tritici) / liquid culture (Septoria blotch); assay type: cell-based; conditions: Zymoseptoria tritici, PDB, 24° C., 4-5 days after application, read-out: control of Mycosphaerella graminicola (inhibition of growth, photometric)
Procedure, shortened: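 Growth inhibition was read photometrically after 4–5 days at 24 °C. The test compound was applied at 200 ppm from DMSO solution, then PDB broth seeded with conidia taken straight from cryogenic storage was added.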

Pyrenophora teres = Pyrenophora teres / barley / leaf disc preventative (net blotch); assay type: in vivo; conditions: foliar, barley leaf segments cv Hasso, inoculated two days after application, assessed 5-7 days after application, read-out: control of Pyrenophora teres (disease control compared to untreated)
Procedure, shortened: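 Preventative leaf-disc test: 200 ppm spray, then spore inoculation after two days on barley cv Hasso segments. Incubation 20 °C, 65% relative humidity, 12 h light/12 h dark; efficacy rated against untreated checks at 5-7 days post-application.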

Gaeumannomyces graminis = Gaeumannomyces graminis / liquid culture (take-all of cereals); assay type: cell-based; conditions: PDB, 24° C., 4-5 days after application, read-out: control of Gaeumannomyces graminis (inhibition of growth, photometric)
Procedure, shortened: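 Growth inhibition, measured by photometry 4-5 days post-application at 24 °C, of fungal mycelial fragments in PDB broth. Test compound applied as DMSO solution at 200 ppm.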

[2] = tested on: Monographella nivalis (Microdochium nivale); test: Monographella nivalis (Microdochium nivale) / liquid culture (foot rot cereals); assay type: cell-based; conditions: PDB, 24° C., 4-5 days after application, read-out: control of Monographella nivalis (inhibition of growth, photometric)
Procedure, shortened: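 Cryostored conidia in potato dextrose broth were added to test compound dispensed from DMSO at 200 ppm. Plates were kept at 24° C, and growth inhibition was read photometrically 4-5 days after application.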

[3] = tested on: Phaeosphaeria nodorum (Septoria nodorum); test: Phaeosphaeria nodorum (Septoria nodorum) / wheat / leaf disc preventative (glume blotch); assay type: in vivo; conditions: Parastagonospora nodorum, foliar, wheat leaf segments cv Kanzler, inoculated 2 days after application, assessed 5-7 days after application, read-out: control of Phaeosphaeria nodorum (percent disease control compared to untreated)
Procedure, shortened: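 Wheat leaf segments (cv Kanzler) on agar sprayed with compound at 200 ppm, inoculated with spores 2 days later. Incubated at 20° C., 75% relative humidity, 12/12 h light/dark; percent disease control versus untreated scored 5-7 days after application.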

[4] = tested on: Thanatephorus cucumeris (Rhizoctonia solani); test: Thanatephorus cucumeris (Rhizoctonia solani) / liquid culture (foot rot, damping-off); assay type: cell-based; conditions: PDB, 24° C., 3-4 days after application, read-out: control of Thanatephorus cucumeris (inhibition of growth, photometric)
Procedure, shortened: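 At 200 ppm, compounds in DMSO were combined with fresh liquid-culture mycelia in PDB and kept at 24° C; photometric measurement of growth inhibition after 3-4 days.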

[5] = tested on: Puccinia recondita f. sp. Tritici; test: Puccinia recondita f. sp. tritici / wheat / leaf disc preventative (brown rust); assay type: in vivo; conditions: foliar, wheat leaf segments cv Kanzler, inoculated 1 day after application, assessed 7-9 days after application, read-out: control of Puccinia recondita f. sp. Tritici (percent disease control compared to untreated)
Procedure, shortened: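 Preventative test: percent disease control relative to untreated leaf segments was assessed 7-9 days post-application. Wheat (cv Kanzler) leaf discs were treated at 200 ppm and spore-inoculated 1 day afterwards. Discs were held at 19° C and 75% relative humidity under a 12/12 h light cycle.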

[6] = tested on: Botryotinia fuckeliana (Botrytis cinerea); test: Botryotinia fuckeliana (Botrytis cinerea) / liquid culture (gray mould); assay type: cell-based; conditions: Vogels broth, 24° C., 3-4 days after application, read-out: control of Botryotinia fuckeliana (inhibition of growth, photometric)
Procedure, shortened: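 Test compound was applied at 200 ppm in DMSO, then Vogels nutrient broth containing cryo-stored B. cinerea conidia was added. Photometric growth-inhibition reading followed after 3-4 days at 24 °C.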

CCCn1c(-n2ncnc2N)nc2cncc(CC)c21 [Compound 174, 2-(7-ethyl-1-propyl-imidazo[4,5-c]pyridin-2-yl)-1,2,4-triazol-3-amine]
≥ 80%: inhibition at 20 ppm [1] | pest or weed control at 200 ppm (Pyrenophora teres) | inhibition at 20 ppm (Gaeumannomyces graminis) | inhibition at 20 ppm [2] | pest or weed control at 200 ppm [3] | inhibition at 20 ppm [4] | pest or weed control at 200 ppm [5] | inhibition at 20 ppm [6]

CCn1c(-n2ncnc2N)nc2cncc(C(C)=O)c21 [Compound 75, 1-[2-(5-amino-1,2,4-triazol-1-yl)-1-ethylimidazo[4,5-c]pyridin-7-yl]ethanone]
≥ 80%: inhibition at 20 ppm [1] | pest or weed control at 200 ppm (Pyrenophora teres) | inhibition at 20 ppm (Gaeumannomyces graminis) | inhibition at 20 ppm [2] | pest or weed control at 200 ppm [3] | inhibition at 20 ppm [4] | pest or weed control at 200 ppm [5] | inhibition at 20 ppm [6]

CCn1c(-n2ncnc2N)nc2cncc(-c3ccc(F)c(F)c3F)c21 [Compound 86, 2-[1-ethyl-7-(2,3,4-trifluorophenyl)imidazo[4,5-c]pyridin-2-yl]-1,2,4-triazol-3-amine]
≥ 80%: inhibition at 20 ppm [1] | pest or weed control at 200 ppm (Pyrenophora teres) | inhibition at 20 ppm (Gaeumannomyces graminis) | inhibition at 20 ppm [2] | pest or weed control at 200 ppm [3] | inhibition at 20 ppm [4] | pest or weed control at 200 ppm [5] | inhibition at 20 ppm [6]

CCn1c(-n2ncnc2N)nc2cncc(-c3cccnc3F)c21 [Compound 89, 2-[1-ethyl-7-(2-fluoropyridin-3-yl)imidazo[4,5-c]pyridin-2-yl]-1,2,4-triazol-3-amine]
≥ 80%: inhibition at 20 ppm [1] | pest or weed control at 200 ppm (Pyrenophora teres) | inhibition at 20 ppm (Gaeumannomyces graminis) | inhibition at 20 ppm [2] | pest or weed control at 200 ppm [3] | inhibition at 20 ppm [4] | pest or weed control at 200 ppm [5] | inhibition at 20 ppm [6]

CCc1cncc2nc(-n3ncnc3N)n(CC)c12 [Compound 23, 2-(1,7-diethylimidazo[4,5-c]pyridin-2-yl)-1,2,4-triazol-3-amine]
≥ 80%: inhibition at 20 ppm [1] | pest or weed control at 200 ppm (Pyrenophora teres) | inhibition at 20 ppm (Gaeumannomyces graminis) | inhibition at 20 ppm [2] | pest or weed control at 200 ppm [3] | inhibition at 20 ppm [4] | pest or weed control at 200 ppm [5] | inhibition at 20 ppm [6]

CCn1c(-n2ncnc2N)nc2cncc(-c3cccc(OC)c3F)c21 [Compound 93, 2-[1-ethyl-7-(2-fluoro-3-methoxyphenyl)imidazo[4,5-c]pyridin-2-yl]-1,2,4-triazol-3-amine]
≥ 80%: inhibition at 20 ppm [1] | pest or weed control at 200 ppm (Pyrenophora teres) | inhibition at 20 ppm (Gaeumannomyces graminis) | inhibition at 20 ppm [2] | pest or weed control at 200 ppm [3] | inhibition at 20 ppm [4] | pest or weed control at 200 ppm [5] | inhibition at 20 ppm [6]

CCn1c(-n2ncnc2N)nc2cncc(-c3cccc(Cl)c3F)c21 [Compound 90, 2-[7-(3-chloro-2-fluorophenyl)-1-ethylimidazo[4,5-c]pyridin-2-yl]-1,2,4-triazol-3-amine]
≥ 80%: inhibition at 20 ppm [1] | pest or weed control at 200 ppm (Pyrenophora teres) | inhibition at 20 ppm (Gaeumannomyces graminis) | inhibition at 20 ppm [2] | pest or weed control at 200 ppm [3] | inhibition at 20 ppm [4] | pest or weed control at 200 ppm [5] | inhibition at 20 ppm [6]

CC=Cc1cncc2nc(-n3ncnc3N)n(CC)c12 [Compound 67, 2-(1-ethyl-7-prop-1-enylimidazo[4,5-c]pyridin-2-yl)-1,2,4-triazol-3-amine]
≥ 80%: inhibition at 20 ppm [1] | pest or weed control at 200 ppm (Pyrenophora teres) | inhibition at 20 ppm (Gaeumannomyces graminis) | inhibition at 20 ppm [2] | pest or weed control at 200 ppm [3] | inhibition at 20 ppm [4] | pest or weed control at 200 ppm [5] | inhibition at 20 ppm [6]

CCn1c(-n2ncnc2N)nc2cncc(/C(C)=N\OC/C=C(\C)Cl)c21 [Compound 153, 2-[7-[(Z)-N-[(E)-3-chlorobut-2-enoxy]-C-methyl-carbonimidoyl]-1-ethyl-imidazo[4,5-c]pyridin-2-yl]-1,2,4-triazol-3-amine]
≥ 80%: inhibition at 20 ppm [1] | pest or weed control at 200 ppm (Pyrenophora teres) | inhibition at 20 ppm (Gaeumannomyces graminis) | inhibition at 20 ppm [2] | pest or weed control at 200 ppm [3] | inhibition at 20 ppm [4] | pest or weed control at 200 ppm [5] | inhibition at 20 ppm [6]

CCCn1c(-n2ncnc2N)nc2cncc(C)c21 [Compound 173, 2-(7-methyl-1-propyl-imidazo[4,5-c]pyridin-2-yl)-1,2,4-triazol-3-amine]
≥ 80%: inhibition at 20 ppm [1] | pest or weed control at 200 ppm (Pyrenophora teres) | inhibition at 20 ppm (Gaeumannomyces graminis) | inhibition at 20 ppm [2] | pest or weed control at 200 ppm [3] | inhibition at 20 ppm [4] | pest or weed control at 200 ppm [5] | inhibition at 20 ppm [6]

CCCn1c(-n2ncnc2N)nc2cnccc21 [Compound 13, 2-(1-propylimidazo[4,5-c]pyridin-2-yl)-1,2,4-triazol-3-amine]
≥ 80%: inhibition at 20 ppm [1] | pest or weed control at 200 ppm (Pyrenophora teres) | inhibition at 20 ppm (Gaeumannomyces graminis) | inhibition at 20 ppm [2] | pest or weed control at 200 ppm [3] | inhibition at 20 ppm [4] | pest or weed control at 200 ppm [5] | inhibition at 20 ppm [6]

CCn1c(-n2ncnc2N)nc2cncc(-c3cccc(F)c3F)c21 [Compound 102, 2-[7-(2,3-difluorophenyl)-1-ethylimidazo[4,5-c]pyridin-2-yl]-1,2,4-triazol-3-amine]
≥ 80%: inhibition at 20 ppm [1] | pest or weed control at 200 ppm (Pyrenophora teres) | inhibition at 20 ppm (Gaeumannomyces graminis) | inhibition at 20 ppm [2] | pest or weed control at 200 ppm [3] | inhibition at 20 ppm [4] | pest or weed control at 200 ppm [5] | inhibition at 20 ppm [6]
